The test system of the test is hPMBC. The experiment in a line: Chymotrypsin-like ProteasomeGlo assay in hPBMC. The test is classed as cell-based. Particulars: Homo sapiens; read-out: Pglo hPBMC. Put shortly:
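IC50 derived from luminescent chymotrypsin-like proteasome activity (Suc-LLVY-Glo substrate plus luciferin detection reagent). Measured after 105 min compound exposure at 37 °C, 5% CO2. Cells were human B cells purified from buffy-coat PBMC.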
As to `Cc1ccc2cc1CNC(=O)C(c1cnn(C)c1)NC(=O)[C@@H](NC(=O)CN1CCCC1)CC(=O)N1CCCC(CCO2)C1` (stereo partly drawn) [Compound 358, N-((12S)-5^4-methyl-9-(1-methyl-1H-pyrazol-4-yl)-8,11,14-trioxo-4-oxa-7,10-diaza-1(3,1)-piperidina-5(1,3)-benzenacyclotetradecaphane-12-yl)-2-(pyrrolidin-1-yl)acetamide], the IC50 was less than 0.1 µM.

Regarding `CC(=O)N[C@H]1CC(=O)N2CCCC(CCOc3ccc(C)c(c3)CNC(=O)C(Cn3c(=O)oc4ccccc43)NC1=O)C2` (stereo partly drawn) [Compound 555, N-((12S)-5^4-methyl-8,11,14-trioxo-9-((2-oxobenzo[d]oxazol-3(2H)-yl)methyl)-4-oxa-7,10-diaza-1(3,1)-piperidina-5(1,3)-benzenacyclotetradecaphane-12-yl)acetamide], the IC50 is less than 0.1 µM.

Consider `CC(=O)N[C@H]1CC(=O)N2CCCC(CCOc3ccc(C)c(c3)CNC(=O)C(CCc3nccs3)NC1=O)C2` (stereo partly drawn) [Compound 563, N-((12S)-5^4-methyl-8,11,14-trioxo-9-(2-(thiazol-2-yl)ethyl)-4-oxa-7,10-diaza-1(3,1)-piperidina-5(1,3)-benzenacyclotetradecaphane-12-yl)acetamide], for which the IC50 is less than 0.1 µM.

On to `Cc1ccc2cc1CNC(=O)[C@H](CCc1ccccc1)NC(=O)[C@@H](NC(=O)c1ccc3cc(N)ccc3c1)CC(=O)N1CCCC(CCO2)C1` (stereo partly drawn) [Compound 339, 6-amino-N-((9S,12S)-5^4-methyl-8,11,14-trioxo-9-phenethyl-4-oxa-7,10-diaza-1(3,1)-piperidina-5(1,3)-benzenacyclotetradecaphane-12-yl)-2-naphthamide], for which the IC50 fell in the range of 0.1 to 0.5 µM.

In the case of `CC(=O)N[C@H]1CC(=O)N2CCCC(CCOc3ccc(C)c(c3)CNC(=O)C(CCc3ccncc3)NC1=O)C2` (stereo partly drawn) [Compound 551, N-((12S)-5^4-methyl-8,11,14-trioxo-9-(2-(pyridin-4-yl)ethyl)-4-oxa-7,10-diaza-1(3,1)-piperidina-5(1,3)-benzenacyclotetradecaphane-12-yl)acetamide], the IC50 is less than 0.1 µM.

With `CC(=O)N[C@H]1CC(=O)N2CCCC(CCOc3ccc(C)c(c3)CNC(=O)C(Cc3ccccc3)NC1=O)C2` (stereo partly drawn) [Compound 558, N-((12S)-9-benzyl-5^4-methyl-8,11,14-trioxo-4-oxa-7,10-diaza-1(3,1)-piperidina-5(1,3)-benzenacyclotetradecaphane-12-yl)acetamide], the IC50 was less than 0.1 µM.

In the case of `Cc1ccc2cc1CNC(=O)[C@H](CCc1ccccc1)NC(=O)[C@@H](NC(=O)OCc1ccccc1)CCC(=O)N1CCC(CO2)C1` (stereo partly drawn) [Compound 349, benzyl ((8S,11S)-4^4-methyl-7,10,14-trioxo-8-phenethyl-3-oxa-6,9-diaza-1(3,1)-pyrrolidina-4(1,3)-benzenacyclotetradecaphane-11-yl)carbamate], the IC50 is less than 0.1 µM.

In the case of `Cc1ccc2cc1CNC(=O)C(c1cnn(C)c1)NC(=O)[C@@H](NC(=O)[C@@H](C)c1ccccc1)CC(=O)N1CCCC(CCO2)C1` (stereo partly drawn) [Compound 359, (2S)-N-((12S)-5^4-methyl-9-(1-methyl-1H-pyrazol-4-yl)-8,11,14-trioxo-4-oxa-7,10-diaza-1(3,1)-piperidina-5(1,3)-benzenacyclotetradecaphane-12-yl)-2-phenylpropanamide], the IC50 was less than 0.1 µM.

For `Cc1ccc2cc1CNC(=O)C(c1cnn(C)c1)NC(=O)CCCCC(=O)N1CCCC(CCO2)C1` (stereo not drawn) [Compound 356, 5^4-methyl-9-(1-methyl-1H-pyrazol-4-yl)-4-oxa-7,10-diaza-1(3,1)-piperidina-5(1,3)-benzenacyclohexadecaphane-8,11,16-trione], the IC50 is less than 0.1 µM.

As to `Cc1ccc2cc1CNC(=O)C(CCc1cnc3nccnc3c1)NC(=O)[C@@H](NC(=O)OCc1ccccc1)CC(=O)N1CCCC(CCO2)C1` (stereo partly drawn) [Compound 505, benzyl ((12S)-5^4-methyl-8,11,14-trioxo-9-(2-(pyrido[2,3-b]pyrazin-7-yl)ethyl)-4-oxa-7,10-diaza-1(3,1)-piperidina-5(1,3)-benzenacyclotetradecaphane-12-yl)carbamate], the IC50 fell in the range of 0.1 to 0.5 µM.

Turning to `COc1cccc(CC(=O)N[C@H]2CC(=O)N3CCCC(CCOc4ccc(C)c(c4)CNC(=O)C(c4cnn(C)c4)NC2=O)C3)c1` (stereo partly drawn) [Compound 362, 2-(3-methoxyphenyl)-N-((12S)-5^4-methyl-9-(1-methyl-1H-pyrazol-4-yl)-8,11,14-trioxo-4-oxa-7,10-diaza-1(3,1)-piperidina-5(1,3)-benzenacyclotetradecaphane-12-yl)acetamide], the IC50 was less than 0.1 µM.

Regarding `CC(=O)N[C@H]1CC(=O)N2CCCC(CCOc3ccc(C)c(c3)CNC(=O)C(c3cc(C)sn3)NC1=O)C2` (stereo partly drawn) [Compound 556, N-((12S)-5^4-methyl-9-(5-methylisothiazol-3-yl)-8,11,14-trioxo-4-oxa-7,10-diaza-1(3,1)-piperidina-5(1,3)-benzenacyclotetradecaphane-12-yl)acetamide], the IC50 was less than 0.1 µM.

As for `Cc1ccc2cc1CNC(=O)[C@H](CCc1ccccc1)NC(=O)[C@@H](NC(=O)Cc1nc(-c3ccncc3)n[nH]1)CC(=O)N1CCCC(CCO2)C1` (stereo partly drawn) [Compound 329, N-((9S,12S)-5^4-methyl-8,11,14-trioxo-9-phenethyl-4-oxa-7,10-diaza-1(3,1)-piperidina-5(1,3)-benzenacyclotetradecaphane-12-yl)-2-(3-(pyridin-4-yl)-1H-1,2,4-triazol-5-yl)acetamide], the IC50 lay in the range of 0.1 to 0.5 µM.

In the case of `CC(=O)N[C@H]1CC(=O)N2CCCC(CCOc3ccc(C)c(c3)CNC(=O)C(c3ccc4ncccc4c3)NC1=O)C2` (stereo partly drawn) [Compound 554, N-((12S)-5^4-methyl-8,11,14-trioxo-9-(quinolin-6-yl)-4-oxa-7,10-diaza-1(3,1)-piperidina-5(1,3)-benzenacyclotetradecaphane-12-yl)acetamide], the IC50 lay within 0.1 to 0.5 µM.

For `CC(=O)N[C@H]1CC(=O)N2CCCC(CCOc3cccc(c3)CNC(=O)[C@H](CCc3ccccc3)NC1=O)C2` (stereo partly drawn) [Compound 364, N-((9S,12S)-8,11,14-trioxo-9-phenethyl-4-oxa-7,10-diaza-1(3,1)-piperidina-5(1,3)-benzenacyclotetradecaphane-12-yl)acetamide], the IC50 is less than 0.1 µM.

On to `Cc1ccc2cc1CNC(=O)[C@H](CCc1ccccc1)NC(=O)[C@@H](NC(=O)Cc1ccccc1F)CC(=O)N1CCCC(CCO2)C1` (stereo partly drawn) [Compound 333, 2-(2-fluorophenyl)-N-((9S,12S)-5^4-methyl-8,11,14-trioxo-9-phenethyl-4-oxa-7,10-diaza-1(3,1)-piperidina-5(1,3)-benzenacyclotetradecaphane-12-yl)acetamide], for which the IC50 was less than 0.1 µM.

For the molecule `Cc1ccc2cc1CNC(=O)[C@H](CCc1ccccc1)NC(=O)[C@@H](NC(=O)Cc1cc(Cl)c(N)c(Cl)c1)CC(=O)N1CCCC(CCO2)C1` (stereo partly drawn) [Compound 320, 2-(4-amino-3,5-dichlorophenyl)-N-((9S,12S)-5^4-methyl-8,11,14-trioxo-9-phenethyl-4-oxa-7,10-diaza-1(3,1)-piperidina-5(1,3)-benzenacyclotetradecaphane-12-yl)acetamide], the IC50 is less than 0.1 µM.

`Cc1ccc2cc1CNC(=O)C(c1cnn(C)c1)NC(=O)[C@@H](NC(=O)C1CCCc3ccccc31)CC(=O)N1CCCC(CCO2)C1` (stereo partly drawn) [Compound 360, N-((12S)-5^4-methyl-9-(1-methyl-1H-pyrazol-4-yl)-8,11,14-trioxo-4-oxa-7,10-diaza-1(3,1)-piperidina-5(1,3)-benzenacyclotetradecaphane-12-yl)-1,2,3,4-tetrahydronaphthalene-1-carboxamide]: the IC50 is less than 0.1 µM.

Regarding `CC(=O)N[C@H]1CCCC(=O)N(C)CCCCOc2ccc(C)c(c2)CNC(=O)[C@H](CCc2ccccc2)NC1=O` [Compound 295, N-(1^4,7-dimethyl-8,13,16-trioxo-15-phenethyl-2-oxa-7,14,17-triaza-1(1,3)-benzenacyclooctadecaphane-12-yl)acetamide], the IC50 is 0.1 to 0.5 µM.

As to `CC(=O)N[C@H]1CCC(=O)N2CC3CC(Oc4ccc(C)c(c4)CNC(=O)[C@H](CCc4ccccc4)NC1=O)C3C2` (stereo partly drawn) [Compound 299, N-(3^4-methyl-6,9,13-trioxo-7-phenethyl-2-oxa-13,5,8-triaza-1(6,3)-bicyclo[3.2.0]heptana-3(1,3)-benzenacyclotridecaphane-10-yl)acetamide], the IC50 lay in the range of 1 to 5 µM.

`Cc1ccc2cc1CNC(=O)[C@H](CCc1ccccc1)NC(=O)[C@@H](NC(=O)Cc1cc(O)on1)CC(=O)N1CCCC(CCO2)C1` (stereo partly drawn) [Compound 335, 2-(5-hydroxyisoxazol-3-yl)-N-((9S,12S)-5^4-methyl-8,11,14-trioxo-9-phenethyl-4-oxa-7,10-diaza-1(3,1)-piperidina-5(1,3)-benzenacyclotetradecaphane-12-yl)acetamide]: the IC50 is less than 0.1 µM.

With `CC(=O)N[C@H]1CC(=O)N2CCCC(CCOc3ccc(C)c(c3)CNC(=O)C(CCc3cccnc3)NC1=O)C2` (stereo partly drawn) [Compound 549, N-((12S)-5^4-methyl-8,11,14-trioxo-9-(2-(pyridin-3-yl)ethyl)-4-oxa-7,10-diaza-1(3,1)-piperidina-5(1,3)-benzenacyclotetradecaphane-12-yl)acetamide], the IC50 was less than 0.1 µM.

For `Cc1ccc2cc1CNC(=O)[C@H](CCc1ccccc1)NC(=O)[C@@H](NC(=O)OCc1ccccc1)CCCC(=O)NCCCCO2` [Compound 322, benzyl ((12S,15S)-1^4-methyl-8,13, 16-trioxo-15-phenethyl-2-oxa-7,14,17-triaza-1(1,3)-benzenacyclooctadecaphane-12-yl)carbamate], the IC50 lay in the range of 0.5 to 1 µM.

As to `Cc1ccc2cc1CNC(=O)[C@H](CCc1ccccc1)NC(=O)[C@@H](NC(=O)OCc1ccccc1)CC(=O)N1CC(C)CC(CCO2)C1` (stereo partly drawn) [Compound 337, benzyl ((9S,12S)-1^5,5^4-dimethyl-8,11,14-trioxo-9-phenethyl-4-oxa-7,10-diaza-1(3,1)-piperidina-5(1,3)-benzenacyclotetradecaphane-12-yl)carbamate], the IC50 was less than 0.1 µM.

The values are drawn from patent publication US20240415819A1, “MACROCYCLIC COMPOUNDS AS PROTEASOME SUBUNIT BETA TYPE-5 INHIBITORS” (Lead Discovery Center GmbH, priority 2021, published 2024).
